Data as given in patent US9469633B2 (dated 2016).

| melting point | SMILES |
| --- | --- |
| 138 to 141 °C | O=C1C[C@](c2cc(Cl)cc(Cl)c2)(C(F)(F)F)C(=O)N1 |
| 72 to 76 °C | O=C(/C=C(\c1cc(Cl)cc(Cl)c1)C(F)(F)F)c1ccco1 |
